# pEC50: −log10 of the molar value.
# Target: T1, RXRα (Homo sapiens, UniProt P19793)
# T1 sequence (P19793 227-458 limits assumed): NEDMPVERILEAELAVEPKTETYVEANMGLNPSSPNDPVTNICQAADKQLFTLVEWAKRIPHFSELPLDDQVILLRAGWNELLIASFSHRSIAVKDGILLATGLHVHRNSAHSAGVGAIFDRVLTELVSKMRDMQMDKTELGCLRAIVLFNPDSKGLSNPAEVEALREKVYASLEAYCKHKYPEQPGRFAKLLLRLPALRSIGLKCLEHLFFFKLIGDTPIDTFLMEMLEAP
# Test: RXRα activation EC50 (Luc and GFP UAS/Gal4 assays)
# Protocol: UAS/Gal4 assay. Bone marrow cells from UAS-GFP mice [79] were transduced with retroviruses MSCV-Gal4 (DNA binding domain, DBD)—RXRα (ligand binding domain, LBD)—IRES—mCherry. […] Cells were treated, and after 48 h, GFP was measured by flow cytometry.
# Luciferase detection. HEK293T cells were transfected using Lipofectamine 2000 (Invitrogen) [80]. Six hours after transfection, the cells were collected and plated into a 48-well plate in 1% BSA media in biological triplicates and treated with compounds. After 40 h incubation, the cells were harvested and assayed for luciferase (Luc Assay System with Reporter Lysis Buffer, Promega) in a Beckman Coulter LD400 plate reader.
row,SMILES,pEC50
1,Cc1cc2c(cc1N(C)c1ccc(C(=O)O)cn1)C(C)(C)COC2(C)C [Compound 36],7.12
2,C=C(c1ccc(C(=O)O)cc1)c1cc2c(cc1C)C(C)(C)OCC2(C)C [Compound 26],7.29
3,Cc1cc2c(cc1N(C)c1ccc(C(=O)O)cn1)C(C)(C)CCC2(C)C [Compound 31],8.27
4,Cc1cc2c(cc1N(C)c1ccc(C(=O)O)cc1)C(C)(C)COC2(C)C [Compound 42],7.06
5,C=CCN(c1ccc(C(=O)O)cn1)c1cc2c(cc1C)C(C)(C)OCC2(C)C [Compound 40],7.97
6,C=CCN(c1ccc(C(=O)O)cc1)c1cc2c(cc1C)C(C)(C)CCC2(C)C [Compound 34],7.94
7,"Cc1cc2c(cc1N(C)c1ncc(C(=O)O)cn1)C(C)(C)CCC2(C)C [Compound 24, reference compound]",8.21
8,Cc1cc2c(cc1N(C)c1ncc(C(=O)O)cn1)C(C)(C)COC2(C)C [Compound 37],6.39
9,CCN(c1ccc(C(=O)O)cc1)c1cc2c(cc1C)C(C)(C)OCC2(C)C [Compound 43],7.64
10,C=CCN(c1ccc2c(c1)C(C)(C)CCC2(C)C)c1ncc(C(=O)O)cn1 [Compound 35],9.27
11,CCN(c1ncc(C(=O)O)cn1)c1cc2c(cc1C)C(C)(C)OCC2(C)C [Compound 39],6.82
12,C=CCN(c1ccc(C(=O)O)cn1)c1cc2c(cc1C)C(C)(C)CCC2(C)C [Compound 32],8.74
13,Cc1cc2c(cc1-c1cc(/C=C/C(=O)O)ccc1O)C(C)(C)COC2(C)C [Compound 29],8.41
14,C=CCN(c1ncc(C(=O)O)cn1)c1cc2c(cc1C)C(C)(C)OCC2(C)C [Compound 41],6.84

# The remaining lines, values ahead:
row,pEC50,SMILES
1,6.93,C=CCN(c1ccc(C(=O)O)cc1)c1cc2c(cc1C)C(C)(C)OCC2(C)C [Compound 44]
2,7.19,Cc1ccc(/C=C/C(=O)O)cc1-c1cc2c(cc1C)C(C)(C)OCC2(C)C [Compound 27]
3,8.07,"Cc1cc2c(cc1N(C)c1ccc(C(=O)O)cc1)C(C)(C)CCC2(C)C [Compound 23, reference compound]"
4,7.63,CCN(c1ccc(C(=O)O)cn1)c1cc2c(cc1C)C(C)(C)OCC2(C)C [Compound 38]
5,7.23,Cc1cc2c(cc1-c1cc(/C=C/C(=O)O)ccc1C(F)(F)F)C(C)(C)COC2(C)C [Compound 28]
6,7.75,"CN(c1ccc2c(c1)C(C)(C)CCC2(C)C)c1ncc(C(=O)O)cn1 [Compound 25, reference compound]"
7,< 6.00,Cc1cc2c(cc1-c1coc3cc(C(=O)O)ccc13)C(C)(C)COC2(C)C [Compound 30]
8,8.28,C=CCN(c1ncc(C(=O)O)cn1)c1cc2c(cc1C)C(C)(C)CCC2(C)C [Compound 33]

# — PMC9782500 (International Journal of Molecular Sciences, 2022)
